Where two headings read alike, the source gives them in different places.
How the values were obtained:
healthy volunteers [1] = experiment: Phase 1 study: ECG pharmacodynamics (QRS, PR, QTcF, T-wave) and PK-PD; assay type: in vivo, human
Description: The ECG recordings included: 1) Continuous real-time ECG telemetry for observation of patient safety starting at 12 hours pre-dose and continuing for 12 hours post-dose, 2) 12-lead ECGs for immediate review by medical staff to ascertain the safety of the procedures and drug administration were recorded at pre-specified (or any time as needed) before dosing (pre-dose) and after dosing (post-dose), and 3) continuous 12-lead ECG (cECG, iCardiac Holter monitoring) was recorded for 24 hours, starting 1 hour prior to dosing and up to 24 hours post dosing.
As expected from non-steady state conditions, and shown in FIGS. 84A and 84B, a temporal dissociation is observed between ([Flec]plasma) and ΔQRS. […] The hysteresis between concentrations and responses (QRS) applies for both routes of administration, IV and inhalation.

[2] = IV 2 mg/Kg, n=3, package insert; cited from earlier work
healthy volunteers [3] = experiment: Phase 1 study: peripheral oxygen saturation (SpO2%); assay type: in vivo, human; conditions: for Oxygen Saturation (SpO2%), Mean: Predose
Description: (§1) Pulmonary safety was assessed by performing lung spirometry tests and measuring peripheral oxygen saturation (SpO2%) prior to dosing and at various times after completion of the inhalation. Lung spirometry tests evaluated all lung function parameters, including forced vital capacity (FVC), forced expiratory volume in 1 second (FEV1), peak expiratory flow (PEF), and forced expiratory flow at 25% and 75% intervals (FEF25-75). Auscultation and respiration rate were also measured prior to dosing and at various times after inhalation. Chest x-rays were performed on subjects before and after flecainide inhalation.

in vivo = conditions: male, Yorkshire, pig, iv, 2 mg/kg
Description: The studies were carried out in male Yorkshire pigs (n=9) weighing 36±1.0 kg (mean±SEM). The pigs were pre-anesthetized with telazol (4.7 mg/kg, intramuscular) and subsequently further anesthetized using alpha-chloralose (80 mg/kg, IV bolus, followed by 24 mg/kg/h continuous IV infusion). The animals were intubated and ventilated at a constant rate of 12 breaths/min and tidal volume of 400 ml per stroke.
Simultaneous blood samples were drawn from the pigtail catheter positioned in the LV and from a catheter in the jugular vein.
The samples were centrifuged and frozen at −80° C. until drug level determination was performed using a bioanalytical assay method developed by Climax Laboratories, Inc.

healthy volunteers [4] = experiment: Phase 1 study: lung spirometry tests; assay type: in vivo, human
Description: as §1

[5] = Phase 1 study: venous plasma pharmacokinetics; assay type: in vivo, human; conditions: for Tmax / Cmax / AUC(0-t) / half-life: venous plasma; for Dist. t1/2α, mean (CV %): both; for half-life: read-out: Elim. t1/2, mean (CV %) (converted)
Description: In this study, for inhalation delivery of flecainide, the estimated total lung doses (eTLDs) were calculated to account for losses of flecainide in the inhalation device and losses of flecainide in subjects' mouth and throat. eTLD was thereby used to denote the dose that actually reached the lungs of the subjects. By design, in all nebulizers there can be a residual volume or mass of drug solution that stays in the nebulizer, and there can also be a percentage of the aerosol caught by subject's throat and mouth. For instance, in this study, it was estimated that 30% of the aerosol was lost in subject's throat and mouth.

## O=C(NCC1CCCCN1)c1cc(OCC(F)(F)F)ccc1OCC(F)(F)F (stereo not shown) [flecainide, flecainide acetate]
Healthy volunteers [1]; 30 min after completion of inhalation, Cohorts 1-3
  QRS interval duration: returned to near pre-dose levels
Healthy volunteers [1]; IV infusion 2 mg/kg
  T-wave morphology: T-wave notching
  non-specific intraventricular conduction delay: 3 of 6 subjects
Healthy volunteers [1]; eTLD 30 mg vs ˜150 mg IV
  smaller changes in QRS interval duration, inhalation vs IV infusion: 2.7 fold
Healthy volunteers [1]; in vivo, iv
  lower plasma concentration by inhalation for QRS prolongation as after IV (6.2/2.7): 2.3 fold
Healthy volunteers [1]; inhalation 20, 30 and 40 mg eTLD
  T-wave morphology: No changes in T-wave morphology
Healthy volunteers [1]; inhalation vs IV
  lower plasma level after inhalation at near-equal ΔQRS: 2.6 fold
Healthy volunteers [1]; inhaled 20 mg eTLD, between 1 and 3 minutes after end of inhalation
  mean ΔQRS: small increase of mean ΔQRS
Healthy volunteers [1]; inhaled 30 mg eTLD, 5 min after completion of inhalation
  PR interval duration prolonged from start of inhalation: 12 ms
Healthy volunteers [1]; inhaled 40 mg eTLD, Cohort 2
  QRS duration: transient increase between 1 and 3 minutes post-dosing
Healthy volunteers [1]; inhaled 20 or 40 mg eTLD
  changes of the PR interval duration: Minimal or no changes
Healthy volunteers [1]; oral inhalation eTLD of 30 mg
  non-specific intraventricular conduction delay: not observed in any of the same subjects
Healthy volunteers [1]; subject R222, 40 mg eTLD, 3 min post-dosing
  decrease of R-wave amplitude (QRSa): 400 μV
Healthy volunteers [1]; subject R222, inhaled 40 mg eTLD, 1 minute post-dosing
  increase of QRS duration (QRSd): 10 ms
[2]
  Tmax: 10.0 min after EOI
Healthy volunteers [3]; 20 mg eTLD, 15 min Postdose
  SpO2%, Mean: 97%
Healthy volunteers [3]; 20 mg eTLD, 30 min Postdose
  SpO2%, Mean: 97%
Healthy volunteers [3]; 20 mg eTLD, 45 min Postdose
  SpO2%, Mean: 97%
Healthy volunteers [3]; 20 mg eTLD, 60 min Postdose
  SpO2%, Mean: 97%
Healthy volunteers [3]; 20 mg eTLD, 75 min Postdose
  SpO2%, Mean: 98%
Healthy volunteers [3]; 20 mg eTLD, 90 min Postdose
  SpO2%, Mean: 98%
Healthy volunteers [3]; 20 mg eTLD, 105 min Postdose
  SpO2%, Mean: 97%
Healthy volunteers [3]; 20 mg eTLD, 120 min Postdose
  SpO2%, Mean: 98%
Healthy volunteers [3]; 40 mg eTLD, 15 min Postdose
  SpO2%, Mean: 96%
Healthy volunteers [3]; 40 mg eTLD, 30 min Postdose
  SpO2%, Mean: 97%
Healthy volunteers [3]; 40 mg eTLD, 45 min Postdose
  SpO2%, Mean: 96%
Healthy volunteers [3]; 40 mg eTLD, 60 min Postdose
  SpO2%, Mean: 96%
Healthy volunteers [3]; 40 mg eTLD, 75 min Postdose
  SpO2%, Mean: 97%
Healthy volunteers [3]; 40 mg eTLD, 90 min Postdose
  SpO2%, Mean: 97%
Healthy volunteers [3]; 40 mg eTLD, 105 min Postdose
  SpO2%, Mean: 97%
Healthy volunteers [3]; 40 mg eTLD, 120 min Postdose
  SpO2%, Mean: 97%
Healthy volunteers [3]; Cohorts 1 and 2
  pre-dose and post-dose values for SpO2 (normal range): 97-98%
Healthy volunteers [3]; inhaled 20 mg eTLD, Cohort 1 (n=6)
  Oxygen Saturation (SpO2%), Mean: 98%
Healthy volunteers [3]; inhaled 40 mg eTLD, Cohort 2 (n=10)
  Oxygen Saturation (SpO2%), Mean: 97%
In vivo; LV plasma level
  concentration at 30 min: 497 ± 190 ng/mL
In vivo; Venous plasma level
  concentration at 30 min: 519 ± 196 ng/mL
Healthy volunteers [4]; 20 mg eTLD, 24 hours Post-dose
  FEF25-75, Mean: 5.40 L/s
Healthy volunteers [4]; 40 mg eTLD, 12 hours Pre-dose
  FEF25-75, Mean: 5.00 L/s
Healthy volunteers [4]; 40 mg eTLD, 24 hours Post-dose
  FEF25-75, Mean: 4.80 L/s
Healthy volunteers [4]; Cohorts 1, 2, 3 and 5
  standard lung spirometry measurements (FEV1, PEF, FVC, FEF 25-75) and peripheral O2 saturation: normal before and after
[5]; IV 2 mg/Kg over 10 min, Cohort 5, n=6, 2 mg/kg
  Tmax, median (min, max): 1 (0, 60) min after EOI
[5]; Inhaled 20 mg, n=6
  Elim. t1/2β, mean (CV %): 9.87 (25) hours
[5]; Inhaled 30 mg, Cohort 5, n=6
  Tmax, median (min, max): ≤ 1 min after EOI
[5]; Inhaled 30 mg, Cohort 5, n=6, listed as Flecainide
  Tmax, median (min, max): 0.5 (0, 1) min after EOI
[5]; Inhaled 40 mg, n=8 (post-hoc)
  Elim. t1/2β, mean (CV %): 9.0 (24) hours
[5]; Inhaled 60 mg, n=7 (post-hoc)
  Elim. t1/2β, mean (CV %): 12.0 (14) hours
[5]; both sexes, human, inhaled or intranasal, 20 mg, Inhaled 20 mg, n=6, from end of inhalation, read-out: Tmax, median (min, max) (converted)
  Tmax: 1 min
[5]; both sexes, human, inhaled or intranasal, 20 mg, Inhaled 20 mg, n=6, read-out: Cmax, arithmetic mean (CV %)
  Cmax: 95.1 ng/mL
[5]; both sexes, human, inhaled or intranasal, 40 mg, Inhaled 40 mg, n=8 (post-hoc), read-out: Cmax, mean (CV %)
  Cmax: 173 ng/mL
[5]; both sexes, human, inhaled or intranasal, 40 mg, Inhaled 40 mg, n=8 (post-hoc), read-out: Tmax, median (min, max) (converted)
  Tmax: 1 min
[5]; both sexes, human, inhaled or intranasal, 60 mg, Inhaled 60 mg, n=7 (post-hoc), read-out: Cmax, mean (CV %)
  Cmax: 232 ng/mL
[5]; both sexes, human, inhaled or intranasal, 60 mg, Inhaled 60 mg, n=7 (post-hoc), read-out: Tmax, median (min, max) (converted)
  Tmax: 1 min
[5]; both sexes, human, inhaled or intranasal, 60 mg, two subjects each of 40 and 60 mg eTLD cohorts, after the end of inhalation, read-out: Tmax of the four subjects excluded post hoc
  Tmax: 20 to 240 min
[5]; both sexes, human, inhaled or intranasal, Inhaled 20 mg, n=6, read-out: AUCLast, mean (CV %)
  AUC(0-t): 421 ng·h/mL
[5]; both sexes, human, inhaled or intranasal, Inhaled 40 mg, n=8 (post-hoc), read-out: AUCLast, mean (CV %)
  AUC(0-t): 685 ng·h/mL
[5]; both sexes, human, inhaled or intranasal, Inhaled 60 mg, n=7 (post-hoc), read-out: AUCLast, mean (CV %)
  AUC(0-t): 946 ng·h/mL
[5]; both sexes, human, inhaled, 40 mg, 40 mg eTLD cohort, read-out: Cmax of the two excluded subjects
  Cmax: 70.9 ng/mL
[5]; both sexes, human, inhaled, 60 mg, 60 mg eTLD cohort, read-out: Cmax of the two excluded subjects
  Cmax: 82.3 ng/mL
[5]; human, in vivo, inhaled or intranasal, 20 mg
  Dist. t1/2α, mean (CV %): 3.86 (34) min
[5]; human, in vivo, inhaled or intranasal, 40 mg
  Dist. t1/2α, mean (CV %): 4.19 (39) min
[5]; human, in vivo, inhaled or intranasal, 60 mg
  Dist. t1/2α, mean (CV %): 3.47 (17) min
[5]; human, in vivo
  estimated t1/2α: 3.5 to 4.2 min
[5]; human, inhaled or intranasal, 30 mg, Inhaled 30 mg, Cohort 5, n=6, read-out: Cmax, mean (CV %)
  Cmax: 120 ng/mL
[5]; human, inhaled or intranasal, 30 mg, Inhaled 30 mg, Cohort 5, n=6
  half-life: 606 min
[5]; human, inhaled or intranasal, Inhaled 30 mg, Cohort 5, n=6, read-out: AUClast, mean (CV %)
  AUC(0-t): 487 ng·h/mL
[5]; human, iv, 2 mg/kg, IV 2 mg/Kg, Cohort 5, n=6, read-out: Cmax, mean (CV %)
  Cmax: 749 ng/mL
[5]; human, iv, 2 mg/kg, IV 2 mg/Kg, Cohort 5, n=6
  half-life: 600 min
[5]; human, IV 2 mg/Kg, Cohort 5, n=6, read-out: AUClast, mean (CV %)
  AUC(0-t): 3050 ng·h/mL
[5]; inhaled 30 mg eTLD vs IV 2 mg/kg (b559: IV normalized to 30 mg), Cohort 5, 2 mg/kg
  venous plasma concentration-time curves, inhaled vs IV: near-identical
[5]; inhaled 20, 30 or 40 mg eTLD
  dose proportionality of venous plasma concentrations: near dose proportionality

From patent US10441537B2, “Unit doses, aerosols, kits, and methods for treating heart conditions by pulmonary administration” (InCarda Therapeutics, Inc., priority 2017, dated 2019)
